# Experimental data published in US20230364057A1, “BACTERIAL DNA GYRASE INHIBITORS AND METHODS OF USE THEREOF” (THE FLORIDA INTERNATIONAL UNIVERSITY BOARD OF TRUSTEES, priority 2022, published 2023).
# Where “and” joins values, the source holds several entries; their conditions need not be identical. Identical values can stand only once. Entries after “also recorded” stand apart in the source; their conditions may differ. Like-named read-outs stand apart in the source and are kept apart here.
# How the values were obtained:
# E. coli DNA gyrase [1] = biological target: T1, E. coli DNA gyrase (Escherichia coli (strain K12), UniProt P0AES4+P0AES6); test: biochemical; type: biochemical
# E. coli DNA gyrase [2] = biological target: T1, E. coli DNA gyrase; test: E. coli DNA gyrase ATPase assay; type: biochemical; details: AB-MECA and gallates at 100 µM
# Protocol: E. coli DNA gyrase ATPase assays were performed in 60 µL of 1 ×gyrase ATPase buffer (10 mM Tris.HCl (pH 7.5), 0.2 mM EDTA, 1 mM magnesium chloride, 1 mM DTT, and 2% (w/v) glycerol) containing 50 nM E. coli DNA gyrase, 200 ng rx pAB1, 0.8 mM Phosphoenol pyruvate, 1.2 units of Pyruvate kinase, 1.7 units of lactate dehydrogenase, and 0.4 mM of NADH at 37° C. After the reaction mixtures are incubated on ice for 5 minutes, 2 mM of ATP is added to initiate the reaction. Absorbance at OD340nm is monitored for up to 30 minutes at 37° C. in a spectrophotometer.
# [3] = biological target: T2, E. coli DNA topoisomerase IV (Escherichia coli (strain K12), UniProt P0AFI2+P20083); test: E. coli DNA topoisomerase IV relaxation assay (gel-based); type: biochemical; details: for IC50: IC50 Topoisomerase IV Gel-based, Table 8
# T2 sequence (P0AFI2 whole entry, looked up): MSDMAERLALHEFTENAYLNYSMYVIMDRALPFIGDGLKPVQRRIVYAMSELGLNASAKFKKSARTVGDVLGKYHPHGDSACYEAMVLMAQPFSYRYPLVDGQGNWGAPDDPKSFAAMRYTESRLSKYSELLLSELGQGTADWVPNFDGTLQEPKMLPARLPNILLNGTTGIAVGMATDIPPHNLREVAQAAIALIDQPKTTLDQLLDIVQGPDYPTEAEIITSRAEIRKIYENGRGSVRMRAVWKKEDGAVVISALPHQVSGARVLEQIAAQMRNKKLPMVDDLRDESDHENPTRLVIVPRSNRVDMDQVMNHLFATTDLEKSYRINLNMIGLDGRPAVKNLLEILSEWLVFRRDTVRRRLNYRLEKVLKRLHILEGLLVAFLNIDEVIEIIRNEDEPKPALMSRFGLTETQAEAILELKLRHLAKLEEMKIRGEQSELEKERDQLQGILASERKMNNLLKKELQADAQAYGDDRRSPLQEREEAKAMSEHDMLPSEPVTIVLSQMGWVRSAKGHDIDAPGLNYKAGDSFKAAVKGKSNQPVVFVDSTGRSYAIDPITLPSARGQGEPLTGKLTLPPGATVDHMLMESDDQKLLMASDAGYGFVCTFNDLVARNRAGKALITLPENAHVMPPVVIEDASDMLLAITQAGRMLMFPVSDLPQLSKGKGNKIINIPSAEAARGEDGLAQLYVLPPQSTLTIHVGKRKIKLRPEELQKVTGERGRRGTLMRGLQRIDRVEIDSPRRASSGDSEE
# T2 sequence (P20083 whole entry, looked up): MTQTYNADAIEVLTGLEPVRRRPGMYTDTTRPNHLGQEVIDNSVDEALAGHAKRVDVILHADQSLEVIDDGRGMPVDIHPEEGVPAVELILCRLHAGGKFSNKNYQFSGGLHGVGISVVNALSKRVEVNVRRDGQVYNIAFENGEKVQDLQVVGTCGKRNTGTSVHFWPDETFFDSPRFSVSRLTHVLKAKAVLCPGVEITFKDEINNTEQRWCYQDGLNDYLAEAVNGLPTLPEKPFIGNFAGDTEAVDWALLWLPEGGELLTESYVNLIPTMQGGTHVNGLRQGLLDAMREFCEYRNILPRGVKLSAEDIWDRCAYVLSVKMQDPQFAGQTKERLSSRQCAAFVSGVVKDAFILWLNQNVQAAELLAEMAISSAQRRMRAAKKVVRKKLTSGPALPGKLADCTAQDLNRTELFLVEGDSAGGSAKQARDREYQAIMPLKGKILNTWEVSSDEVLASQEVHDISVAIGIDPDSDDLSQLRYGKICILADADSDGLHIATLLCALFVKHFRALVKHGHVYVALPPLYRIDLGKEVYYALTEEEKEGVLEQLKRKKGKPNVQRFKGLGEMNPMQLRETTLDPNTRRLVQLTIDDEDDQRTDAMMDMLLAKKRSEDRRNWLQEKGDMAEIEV
# Protocol: (§1) Relaxation assays by E. coli DNA topoisomerase IV and the ATPase assays were performed. […] Lane 1 is supercoiled plasmid pAB1. […] The supercoiled, fluorescently-labeled plasmid pAB1_FL905 was used.
# [4] = biological target: human DNA topoisomerase I (Homo sapiens (Human), UniProt P11387); test: Human DNA topoisomerase I inhibition; type: biochemical; details: gallates at 100 µM
# Sequence of human DNA topoisomerase I (P11387 whole entry): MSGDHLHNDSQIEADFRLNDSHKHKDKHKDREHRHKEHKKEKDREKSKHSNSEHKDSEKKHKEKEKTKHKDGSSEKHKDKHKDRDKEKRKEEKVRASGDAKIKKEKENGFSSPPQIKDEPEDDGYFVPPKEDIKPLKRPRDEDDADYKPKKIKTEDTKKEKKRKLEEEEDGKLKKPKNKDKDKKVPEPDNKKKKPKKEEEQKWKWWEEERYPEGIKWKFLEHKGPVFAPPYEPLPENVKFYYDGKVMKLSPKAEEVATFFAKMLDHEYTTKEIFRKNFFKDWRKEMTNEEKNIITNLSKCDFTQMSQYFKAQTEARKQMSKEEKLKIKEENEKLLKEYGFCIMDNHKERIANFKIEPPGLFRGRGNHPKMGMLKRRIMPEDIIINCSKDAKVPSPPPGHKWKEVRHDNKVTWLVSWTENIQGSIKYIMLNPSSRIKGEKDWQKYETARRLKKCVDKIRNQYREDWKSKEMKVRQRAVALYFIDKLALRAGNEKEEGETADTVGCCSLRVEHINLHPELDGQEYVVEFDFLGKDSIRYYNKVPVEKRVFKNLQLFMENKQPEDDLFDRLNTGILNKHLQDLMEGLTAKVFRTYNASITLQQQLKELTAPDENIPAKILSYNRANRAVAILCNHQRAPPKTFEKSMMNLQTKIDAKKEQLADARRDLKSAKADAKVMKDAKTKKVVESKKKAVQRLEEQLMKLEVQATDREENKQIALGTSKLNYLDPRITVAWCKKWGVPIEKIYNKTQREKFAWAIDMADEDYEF
# [5] = biological target: human DNA topoisomerase IIα (Homo sapiens (Human), UniProt P11388); test: Agarose gel-based inhibition assay against human DNA topoisomerase IIα; type: biochemical; details: gallates at 100 µM
# Sequence of human DNA topoisomerase IIα (P11388 whole entry): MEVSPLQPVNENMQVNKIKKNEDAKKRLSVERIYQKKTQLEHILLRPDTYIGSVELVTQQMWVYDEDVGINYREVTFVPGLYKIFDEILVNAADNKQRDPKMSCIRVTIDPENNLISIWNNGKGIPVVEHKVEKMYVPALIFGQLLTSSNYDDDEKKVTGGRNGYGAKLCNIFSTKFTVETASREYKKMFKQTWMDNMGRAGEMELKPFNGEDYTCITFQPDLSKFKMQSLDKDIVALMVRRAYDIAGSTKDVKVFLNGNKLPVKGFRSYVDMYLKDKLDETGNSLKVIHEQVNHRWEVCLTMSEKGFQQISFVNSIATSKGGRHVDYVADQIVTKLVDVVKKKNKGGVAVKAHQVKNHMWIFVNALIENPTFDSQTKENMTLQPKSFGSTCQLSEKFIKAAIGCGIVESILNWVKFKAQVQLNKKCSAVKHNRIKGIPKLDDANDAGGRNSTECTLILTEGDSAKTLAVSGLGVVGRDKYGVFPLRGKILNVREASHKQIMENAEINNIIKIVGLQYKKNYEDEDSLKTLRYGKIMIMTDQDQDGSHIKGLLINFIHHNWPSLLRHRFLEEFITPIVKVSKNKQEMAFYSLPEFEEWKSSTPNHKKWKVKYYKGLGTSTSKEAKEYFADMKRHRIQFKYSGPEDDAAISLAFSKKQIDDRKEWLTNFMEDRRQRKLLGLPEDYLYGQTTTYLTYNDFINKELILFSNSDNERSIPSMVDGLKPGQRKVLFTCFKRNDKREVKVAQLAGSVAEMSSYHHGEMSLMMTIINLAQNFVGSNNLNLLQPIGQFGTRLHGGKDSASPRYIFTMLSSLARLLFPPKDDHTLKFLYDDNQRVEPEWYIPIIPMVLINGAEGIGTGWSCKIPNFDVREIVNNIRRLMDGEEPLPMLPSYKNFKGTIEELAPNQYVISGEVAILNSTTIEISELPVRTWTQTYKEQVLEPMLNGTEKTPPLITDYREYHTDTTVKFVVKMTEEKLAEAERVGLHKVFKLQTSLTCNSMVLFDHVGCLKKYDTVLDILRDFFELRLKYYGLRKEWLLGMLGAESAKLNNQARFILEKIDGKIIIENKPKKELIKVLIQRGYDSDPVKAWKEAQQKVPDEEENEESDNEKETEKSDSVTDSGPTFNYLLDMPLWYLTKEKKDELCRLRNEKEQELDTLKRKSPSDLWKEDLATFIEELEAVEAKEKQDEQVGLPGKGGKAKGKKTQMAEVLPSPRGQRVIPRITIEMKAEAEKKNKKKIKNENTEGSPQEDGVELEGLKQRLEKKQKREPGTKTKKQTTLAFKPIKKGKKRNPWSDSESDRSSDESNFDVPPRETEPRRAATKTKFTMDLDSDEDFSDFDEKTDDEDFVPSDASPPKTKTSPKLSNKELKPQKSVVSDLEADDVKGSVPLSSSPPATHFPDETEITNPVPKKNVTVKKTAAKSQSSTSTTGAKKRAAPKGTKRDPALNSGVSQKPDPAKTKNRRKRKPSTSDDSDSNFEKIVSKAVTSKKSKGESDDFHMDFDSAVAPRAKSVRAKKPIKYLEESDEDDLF
# [6] = biological target: E. coli DNA topoisomerase I (Escherichia coli (strain K12), UniProt P06612); test: E. coli DNA topoisomerase I inhibition; type: biochemical; details: gallates at 100 µM
# Sequence of E. coli DNA topoisomerase I (P06612 whole entry, looked up): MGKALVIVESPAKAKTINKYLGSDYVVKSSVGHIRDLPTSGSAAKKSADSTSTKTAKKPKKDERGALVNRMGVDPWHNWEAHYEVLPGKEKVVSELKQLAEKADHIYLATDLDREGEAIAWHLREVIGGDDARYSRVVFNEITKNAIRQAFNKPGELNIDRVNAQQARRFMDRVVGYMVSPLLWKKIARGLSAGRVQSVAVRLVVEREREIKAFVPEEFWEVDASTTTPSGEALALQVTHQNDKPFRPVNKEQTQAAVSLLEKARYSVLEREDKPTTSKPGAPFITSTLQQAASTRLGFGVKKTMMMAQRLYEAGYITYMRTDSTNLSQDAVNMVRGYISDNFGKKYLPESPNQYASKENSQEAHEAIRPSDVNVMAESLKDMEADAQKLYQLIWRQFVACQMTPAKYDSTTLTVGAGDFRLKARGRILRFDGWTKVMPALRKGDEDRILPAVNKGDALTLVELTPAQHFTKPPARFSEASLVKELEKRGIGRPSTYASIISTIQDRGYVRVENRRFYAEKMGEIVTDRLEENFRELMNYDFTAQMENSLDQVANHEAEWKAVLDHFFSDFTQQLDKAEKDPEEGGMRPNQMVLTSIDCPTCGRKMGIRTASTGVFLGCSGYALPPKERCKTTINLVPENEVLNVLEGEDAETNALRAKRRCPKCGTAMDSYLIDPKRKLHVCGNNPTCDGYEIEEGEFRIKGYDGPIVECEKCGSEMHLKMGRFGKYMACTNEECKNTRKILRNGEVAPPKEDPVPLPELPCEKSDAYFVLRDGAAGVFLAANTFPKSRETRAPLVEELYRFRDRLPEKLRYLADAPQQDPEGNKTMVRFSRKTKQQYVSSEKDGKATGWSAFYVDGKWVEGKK
# Mtb DNA gyrase = Mtb DNA gyrase (Mycobacterium tuberculosis (strain ATCC 25618 / H37Rv), UniProt P9WG45+P9WG47); test: Mtb DNA gyrase inhibition assay (gel-based); type: biochemical; details: for IC50: Table 10, read-out: IC50 (µM) Mtb gyrase
# Protocol: The IC50 against E. coli (A) and Mtb (C) gyrase were determined using the gel-based gyrase inhibition assays. The gyrase mediated DNA cleavage assays (B and D) were performed using pBR322. (A) 229 inhibits E. coli gyrase. Lane 1, rx pAB1. […] Lane 1, rx pAB1. […] 100 µM of CPDs were used. Symbols rx, nk, In, and sc represent relaxed, nicked, linear, and supercoiled DNA, respectively.
# Agarose gel-based DNA gyrase inhibition assays were performed in 30 µL of 1 ×gyrase buffer (35 mM Tris-HCl, 24 mM KCl, 4 mM MgCl2, 2 mM DTT, 1.75 mM ATP, 0.1 mg/mL BSA, 6.5% glycerol, pH7.5) containing 400 ng of rx pAB1 at 37° C. 100 ng of DNA gyrase was used to supercoil the rx pAB1 in the presence of different concentrations of a gyrase inhibitor. After 15 minutes of incubation with the inhibitor at 37° C., all reactions were stopped with 1 µL of stop solution (3% SDS and 250 mM EDTA). Samples were analyzed by electrophoresis in 1% w/v agarose gels followed by ethidium bromide staining and photographed under UV light.
# E. coli (ATCC 25922) = test: Minimum inhibitory concentration, broth microdilution; details: Escherichia coli
# in vitro = details: human
# S. aureus (ATCC 14775) = test: Minimum inhibitory concentration, broth microdilution; details: Staphylococcus aureus
# [7] = test system: NCI panel of 60 cancer cell lines; details: up to 1 mM; results of NCI DTP; cited from earlier work
# Mtb = Mtb whole cell assay (% inhibition, MIC); type: cell-based, Mycobacterium tuberculosis; details: Mycobacterium tuberculosis
# M. abscessus = test: MIC against M. abscessus; type: cell-based, Mycobacterium abscessus; details: Mycobacteroides abscessus
# E. coli imp = test: microbe, parasite or virus in culture; details: Escherichia coli, read-out: MIC E. coli imp BAS3023
# Protocol: (§2) Antibacterial minimum inhibitory concentrations (MICs) were obtained from three independent experiments using broth microdilution methods in 96-well plates according to Clinical and Laboratory Standards Institute guidelines. Cells were culture from singles colonies in MHIIB medium for 24 h at 37° C. in agitation (200 RPM). The cultures were then diluted using the same media to reach an OD600 of 0.1. Then, 50 µL of the diluted cultures were added to the plates holding 50 µL of serially diluted compounds in MHIIB. The plates were incubated at 37° C. for 20 h. The starting inoculum was fixated to 10^5 colony-forming units per ml.
# [8] = biological target: T2, E. coli DNA topoisomerase IV; test: SDFQ-based DNA relaxation assay with E. coli DNA topoisomerase IV; type: biochemical
# Protocol: as §1
# B. subtilis (ATCC 6633) = test: Minimum inhibitory concentration, broth microdilution; details: Bacillus subtilis, ATCC6633, read-out: MIC B. subtilis ATCC 6633
# Protocol: as §2
# E. coli DNA gyrase [9] = biological target: T1, E. coli DNA gyrase; test: SDFQ-based DNA gyrase inhibition assay; type: biochemical; details: Table 8; read-out: IC50 Gyrase SDFQ
# Protocol: 100 ng of DNA gyrase was used to supercoil the rx pAB1_FL905 in the presence of different concentrations of a gyrase inhibitor. […] The IC50 values were estimated by nonlinear fitting of the following equation: […]
# where F is the fluorescence intensity at the x concentration of an min inhibitor. Fmax and Fmin are the maximum and minimum fluorescence of the DNA sample, respectively. P is a slope parameter.
# E. coli DNA gyrase [10] = biological target: T1, E. coli DNA gyrase; test: Agarose gel-based DNA gyrase inhibition assay; type: biochemical; details: Table 8; read-out: IC50 Gyrase Gel-based
# Protocol: 100 ng of DNA gyrase was used to supercoil the rx pAB1 in the presence of different concentrations of a gyrase inhibitor. […] Samples were analyzed by electrophoresis in 1% w/v agarose gels followed by ethidium bromide staining and photographed under UV light.
# MRSA = test: Minimum inhibitory concentration, broth microdilution; details: Staphylococcus aureus
# Protocol: as §2
# E. coli DNA gyrase [11] = biological target: T1, E. coli DNA gyrase; test: SDFQ HTS primary assay (1536-well, pAB1_FL905); type: biochemical; details: for inhibition at 5 µM: read-out: inhibition activities against E. coli DNA gyrase
# Protocol: SDFQ HTS primary assay using pAB1_FL905 was performed in 2 µL of (1 xDNA gyrase buffer: 20 mM Tris-Acetate pH 7.9, 50 mM KAc, 10 mM MgCl2, 2 mM DTT, 1 mM ATP, 0.1 mg/mL BSA). […] 3) Spun plate at 800 rpm for 30 seconds.
# E. coli DNA gyrase [12] = biological target: T1, E. coli DNA gyrase; test: DNA gyrase mediated DNA cleavage assay; type: biochemical; details: pBR322
# Protocol: 250 ng of supercoiled pBR322 plasmid were incubated with 50 nM of E. coli DNA gyrase in reactions containing 35 mM Tris-HCl, 24 mM KCl, 4 mM MgCl2, 2 mM DTT, 0.1 mg/mL BSA, 6.5% glycerol, and 1.75 mM ATP, in presence of 200 µM of compounds, at 37° C. for 15 min. Then, 0.2% (w/v) of SDS and 0.1 mg/mL proteinase K were added, and samples were incubated at 37° C. for 1 h. […] Samples were examined by electrophoresis in 1% w/v agarose gel containing 0.5 µg/mL ethidium bromide and photographed under UV light.
# E. coli DNA gyrase [13] = biological target: T1, E. coli DNA gyrase; details: known inhibitors of the LOPAC library; read-out: inhibition IC50 against E. coli DNA gyrase; cited from earlier work
# [14] = ATCC14775, read-out: MIC (µM) Sa
# [15] = read-out: IC50 against E. coli DNA gyrase
# [16] = ATCC25922, read-out: MIC E coli ATCC 25922, Table 9
# [17] = ATCC14775, read-out: MIC S. aureus ATCC 14775
# [18] = ATCC33591 / MRSA, read-out: MIC MRSA ATCC 33591
# [19] = ATCCBAA44 / MRSA, read-out: MIC S. aureus (MRSA) ATCC BAA44
smiles,measurement,setting,value
"CNC(=O)[C@H]1O[C@@H](n2cnc3c(NCc4ccc(N)cc4)ncnc32)[C@H](O)[C@@H]1O [AB-MECA, reference compound]",inhibition of E. coli DNA gyrase activities,E. coli DNA gyrase [1],does not inhibit
same,inhibition of the ATPase activities of E. coli DNA gyrase,E. coli DNA gyrase [2],did not inhibit
same,inhibition of E. coli DNA topoisomerase IV,[3],did not inhibit
same,inhibition of human DNA topoisomerase I,[4],did not inhibit
same,inhibition of human DNA topoisomerase IIα,[5],did not inhibit
same,inhibition of E. coli DNA topoisomerase I,[6],did not inhibit
same,inhibition of Mtb DNA gyrase activities,Mtb DNA gyrase,did not inhibit
C[n+]1c(-c2ccc(/C=C/C=N/NC(=O)c3ccc(C(=O)N/N=C/c4ccc(-c5cn6ccccc6[n+]5C)cc4)cc3)cc2)cn2ccccc21 [Compound 261],MIC,"E. coli (ATCC 25922); ATCC25922, read-out: MIC (µM) Ec, E. coli strain ATCC25922",50 µM
same,IC50,in vitro,> 200 µM
same,MIC,S. aureus (ATCC 14775); [14],> 200 µM
same,cytotoxicity against the NCI panel of 60 cancer cell lines,[7],no cytotoxicity
same,MIC,Mtb,109 µM
same,MIC,M. abscessus,22.9 µM
same,IC50,Mtb DNA gyrase,9.3 µM
C[n+]1c(-c2ccc(NC(=O)c3ccc(C(=O)Nc4ccc(-c5cn6ccccc6[n+]5C)cc4)cc3)cc2)cn2ccccc21 [Compound 263],IC50,in vitro,> 200 µM
same,MIC,S. aureus (ATCC 14775); [14],0.39 µM
same,cytotoxicity against the NCI panel of 60 cancer cell lines,[7],no cytotoxicity
same,MIC,Mtb,11.3 µM
same,MIC,M. abscessus,> 200 µM
same,IC50,Mtb DNA gyrase,7.7 µM
"CNC(=O)[C@H]1O[C@@H](n2cnc3c(NCc4cccc(I)c4)ncnc32)[C@H](O)[C@@H]1O [IB-MECA, reference compound]",IC50,E. coli DNA gyrase [1]; [15],50.7 µM
same,inhibition of the ATPase activities of E. coli DNA gyrase,E. coli DNA gyrase [2],ATP competitive inhibitors; also recorded: inhibition
same,inhibition of E. coli DNA topoisomerase IV,[3],did not inhibit
same,inhibition of human DNA topoisomerase I,[4],did not inhibit
same,inhibition of human DNA topoisomerase IIα,[5],did not inhibit
same,inhibition of E. coli DNA topoisomerase I,[6],did not inhibit
same,inhibition of Mtb DNA gyrase activities,Mtb DNA gyrase,did not inhibit
"CCCCCCCCOC(=O)c1cc(O)c(O)c(O)c1 [Octyl gallate, octyl gallate]",MIC,E. coli (ATCC 25922); [16],> 200 µM
same,MIC,"E. coli (ATCC 25922); ATCC25922, read-out: MIC E. coli ATCC 25922, Table 7",226 µg/mL
same,MIC,E. coli imp,50 µM
same,MIC,S. aureus (ATCC 14775); [17],56.5 µg/mL and 200 µM
same,inhibition of E. coli DNA topoisomerase IV,[3],strongly inhibit
same,IC50,[3],50 µM
same,IC50,[8],41.2 µM
same,MIC,B. subtilis (ATCC 6633),4 µg/mL and 12.5 µM to 25 µM
same,IC50,E. coli DNA gyrase [9],26 µM
same,IC50,E. coli DNA gyrase [10],50 µM
same,MIC,MRSA; [18],100 µM
same,MIC,MRSA; [19],56.5 µg/mL
"O=C(Oc1ccccc1)c1cc(O)c(O)c(O)c1 [Phenyl gallate, phenyl gallate]",MIC,E. coli (ATCC 25922); [16],> 200 µM
same,MIC,E. coli imp,> 200 µM
same,MIC,S. aureus (ATCC 14775); [17],64 µg/mL and 200 µM
same,IC50,[3],> 100 µM
same,IC50,[8],> 100 µM
same,MIC,B. subtilis (ATCC 6633),> 64 µg/mL and > 200 µM
same,IC50,E. coli DNA gyrase [9],> 100 µM
same,IC50,E. coli DNA gyrase [10],> 100 µM
same,MIC,MRSA; [18],200 µM
same,MIC,MRSA; [19],64 µg/mL
O=C(O)C1=CC(=C(c2ccc(O)c(C(=O)O)c2)c2ccc(O)c(C(=O)O)c2)C=CC1=O [aurintricarboxylic acid],inhibition at 5 µM,E. coli DNA gyrase [11],> 40%
"CNC(=O)[C@H]1O[C@@H](n2cnc3c(NCc4cccc(I)c4)nc(Cl)nc32)[C@H](O)[C@@H]1O [chloro-IB-MECA, reference compound]",IC50,E. coli DNA gyrase [1]; IC50 against E. coli DNA gyrase,2.4 µM
same,IC50,E. coli DNA gyrase [1]; [15],< 5 µM
same,inhibition of the ATPase activities of E. coli DNA gyrase,E. coli DNA gyrase [2],ATP competitive inhibitors; also recorded: inhibition
same,inhibition of E. coli DNA topoisomerase IV,[3],did not inhibit
same,inhibition of human DNA topoisomerase I,[4],did not inhibit
same,inhibition of human DNA topoisomerase IIα,[5],did not inhibit
same,inhibition of E. coli DNA topoisomerase I,[6],did not inhibit
same,E. coli DNA gyrase-mediated DNA breaks and nicking,E. coli DNA gyrase [12],did not DNA double stranded DNA breaks
same,inhibition of Mtb DNA gyrase activities,Mtb DNA gyrase,did not inhibit
CCn1cc(C(=O)O)c(=O)c2ccc(C)nc21 [nalidixic acid],IC50,E. coli DNA gyrase [13],> 30 µM
CC1COc2c(N3CCN(C)CC3)c(F)cc3c(=O)c(C(=O)O)cn1c23 (stereo not drawn) [ofloxacin],inhibition at 5 µM,E. coli DNA gyrase [11],> 40%
CCn1cc(C(=O)O)c(=O)c2cc3c(cc21)OCO3 [oxolinic acid],IC50,E. coli DNA gyrase [13],> 30 µM
N[C@@H]1[C@H]2CN(c3nc4c(cc3F)c(=O)c(C(=O)O)cn4-c3ccc(F)cc3F)C[C@@H]12 [trovafloxacin],inhibition activities against E. coli DNA gyrase,"E. coli DNA gyrase [11]; LOPAC library, 5 µM",more than 40%
